Patent publication US5688774A (priority 1995, dated 1997)
Read-outs that look alike come from different tables or passages of the source.

Legend:
rat brain A1 receptor = target: T1, rat brain A1 receptor (Rattus norvegicus, UniProt P25099); test: Displacement of [^3 H]PIA binding at A1 receptors
T1 construct: Rat cerebral cortical and striatal membranes were prepared; from tissue; host or cells: rat brain membranes (cerebral cortical)
T1 sequence (P25099 1-326): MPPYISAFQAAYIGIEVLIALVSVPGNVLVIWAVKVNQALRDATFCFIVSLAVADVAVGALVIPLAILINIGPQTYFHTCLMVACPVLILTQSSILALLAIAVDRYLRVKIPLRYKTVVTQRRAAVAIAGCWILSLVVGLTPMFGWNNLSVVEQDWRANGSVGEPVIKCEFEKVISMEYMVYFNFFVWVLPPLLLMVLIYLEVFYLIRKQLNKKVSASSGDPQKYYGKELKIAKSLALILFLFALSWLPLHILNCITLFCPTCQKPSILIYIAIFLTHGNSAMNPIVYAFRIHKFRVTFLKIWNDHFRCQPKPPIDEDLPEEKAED

rat brain A2a receptor = target: T2, rat brain A2a receptor (Rattus norvegicus, UniProt P30543); test: Displacement of [^3 H]CGS 21680 binding at A2a receptors
T2 construct: A2 receptors from rat striatal membranes; from tissue; host or cells: rat striatal membranes
Experimental: Rat cerebral cortical and striatal membranes were prepared (Jacobson et al., J. Med. Chem., 35, 4143-4149 (1992)) and treated with ADA for 30 min at 37° C. prior to storage at -70° C.
The stock solutions were diluted with DMSO to a concentration of ≤0.1 mM prior to addition to the aqueous medium. The final concentration of DMSO in the assay medium was generally 2%.
At least six different concentrations spanning three orders of magnitude, adjusted appropriately for the IC50 of each compound, were used. […]. Pharmacol., 22, 3099-3108 (1973)).

[1] = [^3 H]PIA, rat brain membranes, Ki ± S.E.M., n = 3-6
[2] = [^3 H]CGS 21680, rat brain membranes, Ki ± S.E.M., n = 3-6
[3] = at 10^-4, [^3 H]CGS 21680, rat brain

T2 sequence (P30543 whole entry): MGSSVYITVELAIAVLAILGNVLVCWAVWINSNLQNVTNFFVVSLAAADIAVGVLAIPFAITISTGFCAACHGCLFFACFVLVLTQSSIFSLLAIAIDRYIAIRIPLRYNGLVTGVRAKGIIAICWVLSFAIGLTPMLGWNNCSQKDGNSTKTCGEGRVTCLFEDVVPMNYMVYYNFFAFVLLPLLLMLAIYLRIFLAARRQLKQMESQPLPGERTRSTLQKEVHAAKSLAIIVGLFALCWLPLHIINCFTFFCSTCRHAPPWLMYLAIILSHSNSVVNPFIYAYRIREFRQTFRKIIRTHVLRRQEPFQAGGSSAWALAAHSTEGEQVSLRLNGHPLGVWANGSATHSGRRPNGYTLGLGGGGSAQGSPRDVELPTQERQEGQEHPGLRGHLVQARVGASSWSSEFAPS

Compound	Ki (rat brain A1 receptor; [1]) [µM]	Ki (rat brain A2a receptor; [2]) [µM]	Ki (rat brain A2a receptor) [µM]	also measured
CN(C)c1nc(NCc2cccc(I)c2)c2ncn(C)c2n1 [Compound 12, 2-Dimethylamino-N^6-(3-Iodobenzyl)-9-Methyladenine]	1.48 ± 0.12	9.89 ± 3.01	–	–
CNC(=O)[C@H]1O[C@@H](n2cnc3c(NCc4cccc(I)c4)nc(Cl)nc32)[C@H](OC(=O)c2ccccc2)[C@@H]1OC(=O)c1ccccc1 [2-Chloro-9-(2',3'-dibenzoyl-β-D-5-methyl-ribofuronamido)-N^6-(3-iodobenzyl)adenine]	–	–	–	% Inhibition (A1) (rat brain A1 receptor; at 10^-4, [^3 H]PIA, rat brain): 21%; % Inhibition (A2a) (rat brain A2a receptor): 7%
Cn1cnc2c(NCc3cccc(I)c3)nc(NN)nc21 [Compound 10, 2-Hydrazido-N^6-(3-Iodobenzyl)-9-Methyladenine]	5.44 ± 0.05	19.6 ± 7.8	–	–
CCCNc1nc(NCc2cccc(I)c2)c2ncn(C)c2n1 [Compound 13, N^6-(3 -Iodobenzyl)-9-Methyl-2-Propylaminoadenine]	–	–	1.72 ± 0.7	Ki (rat brain A1 receptor): 0.33 ± 0.08 µM
CNC(=O)[C@H]1C[C@@H](n2cnc3c(NCc4cccc(I)c4)ncnc32)[C@H](O)[C@@H]1O (relative stereo) [Compound 61, (±)-9-[2α,3β-Dihydroxy-4β-(N-Methylcarbamoyl)Cyclopent-1β-yl)]-N^6-(3-Iodobenzyl)-adenine]	–	–	–	% Inhibition (A2a) (rat brain A2a receptor; [3]): 28 ± 5%
Cn1cnc2c(NCc3cccc(I)c3)nc(Sc3ccncc3)nc21 [Compound 17, N^6-(3-Iodobenzyl)-9-Methyl-2-(4-Pyridylthio)adenine]	0.84 ± 0.19	11.6 ± 4	–	–
CNC(=O)[C@H]1O[C@@H](n2cnc3c(NOc4ccccc4)ncnc32)[C@H](O)[C@@H]1O [Compound 71]	–	–	66.3	–
CNC(=O)[C@@H]1C[C@@H](OS(C)(=O)=O)[C@H](n2cnc3c(NCc4cccc(I)c4)nc(Cl)nc32)O1 [Compound 41, 2-Chloro-9-(3-Deoxy-2-Methanesulfonyl-β-D-5-Methyl-Ribofuronamido)-N^6-(3-Iodobenzyl)adenine]	1.29 ± 0.08	41.9 ± 6.2	–	–

Continued, in another order:

Ki (rat brain A1 receptor; [1]) [µM]	Ki (rat brain A2a receptor; [2]) [µM]	Ki (rat brain A2a receptor) [µM]	Compound	also measured
24.2 ± 7.9	90 ± 12.7	–	2-Chloro-9-(β-arabinosyl)adenine	–
6.69 ± 0.74	–	–	CNC(=O)[C@@H]1C[C@H](N)[C@H](n2cnc3c(NCc4cccc(I)c4)nc(Cl)nc32)O1 [Compound 43, 2-Chloro-9-(2'-Amino-2',3'-dideoxy-β-D-5'-methyl-Arabinofuronamido)N^6-(3-Iodobenzyl)adenine]	% Inhibition (A2a) (rat brain A2a receptor; [3]): 2%
5.73 ± 1.88	2.23 ± 1.33	–	Cn1cnc2c(NCc3cccc(I)c3)ncnc21 [Compound 3, N^6-(3-Iodobenzyl)-9-Methyladenine]	–
150 ± 28	54.7 ± 3.1	–	9-(β-talosyl)adenine	–
5.57 ± 1.32	3.22 ± 1.52	–	Cn1cnc2c(NCc3cccc(I)c3)nc(N)nc21 [Compound 9, 2-Amino-N^6-(3-iodobenzyl)-9-methyladenine]	–
–	–	7.16	CNC(=O)[C@H]1O[C@@H](n2cnc3c(NNc4ccccc4)ncnc32)[C@H](O)[C@@H]1O [Compound 70, 6-(N'-phenylhydrazinyl)Purine-9-β-Ribofuranoside-5'-N-Methyluronamide]	–
19.1 ± 2.2	41.8 ± 12.5	–	OC[C@H](O)Cn1cnc2c(NCc3cccc(I)c3)ncnc21 [Compound 20, S--N^6-(3-Iodobenzyl)-9-(2,3-Dihydroxypropyl)adenine]	–
–	–	1.96	CNC(=O)[C@H]1O[C@@H](n2cnc3c(NCc4cccc(NC(=O)CCNC(=O)OC(C)(C)C)c4)ncnc32)[C@H](O)[C@@H]1O [Compound 67, N^6-[3-(N-6-Boc-β-Alanylamino)Benzyl]Adenosine-5'-Methyluronamide]	–
–	–	0.144 ± 0.04	CNC(=O)[C@H]1O[C@@H](n2cnc3c(NCc4cccc(NC(=O)CCN)c4)ncnc32)[C@H](O)[C@@H]1O [Compound 66, N^6-[3(β-Alanylamino)Benzyl]Adenosine-5'-Methyluronamide]	–
–	–	0.215 ± 0.054	CNC(=O)[C@H]1O[C@@H](n2cnc3c(NCc4cccc(NC(=O)[C@@H]5CCCN5)c4)ncnc32)[C@H](O)[C@@H]1O [Compound 65, N^6-[3-(L-Prolylamino)Benzyl]Adenosine-5'-N-Methyluronamide]	–
